Results reported in US5840684A, “Glycopeptide antibiotic derivatives” (Eli Lilly and Company, priority 1995, dated 1998).
In brackets after ≈: the same amount, converted by molar mass.

Columns and labels:
[1] = test system: vancomycin-resistant enterococci; experiment: broth micro-dilution, mean geometric MIC; assay type: cell-based, Enterococcus faecium and Enterococcus faecalis; conditions: enterococci, 24-hour incubation
[2] = test system: Staphylococcus aureus SA1199B; assay type: cell-based
Method: (§1) The MIC's were determined using a standard broth micro-dilution assay.

[3] = test system: Staphylococcus aureus S13E; assay type: cell-based
Method: as §1

[4] = test system: Streptococcus pneumoniae P1; experiment: broth micro-dilution MIC; assay type: cell-based
Method: (§2) The formula I compounds have in vitro and in vivo activity against Gram-positive pathogenic bacteria. The MIC's were determined using a standard broth micro-dilution assay.

[5] = test system: Entercoccus faecium 2041; experiment: broth micro-dilution MIC; assay type: cell-based; conditions: Entercoccus faecium 2041
Method: as §2

[6] = test system: Enterococcus gallinarum 245; experiment: broth micro-dilution MIC; assay type: cell-based; conditions: Enterococcus gallinarum 245
Method: as §2

[7] = test system: Entercoccus faecium 180; experiment: broth micro-dilution MIC; assay type: cell-based; conditions: Entercoccus faecium 180
Method: as §2

[8] = test system: Escherichia coli EC14; experiment: broth micro-dilution MIC; assay type: cell-based
Method: as §2

[9] = test system: Staphylococcus haemolyticus 105; experiment: broth micro-dilution MIC; assay type: cell-based
Method: as §2

[10] = test system: Staphylococcus haemolyticus 415; experiment: broth micro-dilution MIC; assay type: cell-based
Method: as §2

[11] = test system: Staphylococcus epidermidis 270; experiment: broth micro-dilution MIC; assay type: cell-based
Method: as §2

[12] = test system: Haemophilus influenzae RD; experiment: broth micro-dilution MIC; assay type: cell-based; conditions: Haemophilus influenzae RD
Method: as §2

[13] = test system: Staphylococcus aureus 491; experiment: broth micro-dilution MIC; assay type: cell-based
Method: as §1

[14] = test system: Entercoccus faecium 180-1; experiment: broth micro-dilution MIC; assay type: cell-based
Method: as §1

[15] = test system: Staphylococcus aureus 447; experiment: broth micro-dilution MIC; assay type: cell-based
Method: as §1

[16] = test system: Staphylococcus aureus X400; experiment: broth micro-dilution MIC; assay type: cell-based
Method: as §1

[17] = test system: Staphylococcus aureus X778; experiment: broth micro-dilution MIC; assay type: cell-based
Method: as §1

[18] = test system: Streptococcus pyogenes C203; experiment: broth micro-dilution MIC; assay type: cell-based
Method: as §1

[19] = test system: Entercoccus faecium 276; experiment: broth micro-dilution MIC; assay type: cell-based
Method: as §1

[20] = test system: Staphylococcus aureus 446; experiment: broth micro-dilution MIC; assay type: cell-based
Method: as §1

[21] = test system: Staphylococcus aureus 489; experiment: broth micro-dilution MIC; assay type: cell-based
Method: as §1

[22] = test system: Staphylococcus aureus SA1199A; experiment: broth micro-dilution MIC; assay type: cell-based
Method: as §1

[23] = test system: vancomycin-susceptible enterococci; experiment: broth micro-dilution, mean geometric MIC; assay type: cell-based, Enterococcus faecium and Enterococcus faecalis; conditions: enterococci, 24-hour incubation
[24] = test system: Staphylococcus aureus SA1199; experiment: broth micro-dilution MIC; assay type: cell-based
Method: as §1

SMILES | mean geometric MIC, Vancomycin Resistant Strains [1] | MIC [2] | MIC [4] | MIC [5] | MIC [6] | MIC [7] | MIC [8] | MIC [9] | MIC [10] | MIC [11] | MIC [12] | MIC [13] | MIC [14] | MIC [15] | MIC [16] | MIC [17] | MIC [19] | MIC [20] | MIC [21] | mean geometric MIC, Vancomycin Sensitive Strains [23] | other results
CNC(CC(C)C)C(=O)NC1C(=O)NC(CC(N)=O)C(=O)NC2C(=O)NC3C(=O)NC(C(=O)NC(C(=O)O)c4cc(O)cc(O)c4-c4cc3ccc4O)C(OC3CC(C)(N)C(O)C(C)O3)c3ccc(c(Cl)c3)Oc3cc2cc(c3OC2OC(CO)C(O)C(O)C2OC2CC(C)(NCc3c4ccccc4c(Cl)c4ccccc34)C(O)C(C)O2)Oc2ccc(cc2Cl)C1O (centres unmarked) [Compound 18] | 6.7 µg/mL | 2 µg/mL (≈ 1.1 µM) | ≤ 0.06 µg/mL | 0.25 µg/mL (≈ 0.138 µM) | 1 µg/mL (≈ 0.55 µM) | 2 µg/mL (≈ 1.1 µM) | > 64 µg/mL | 16 µg/mL (≈ 8.81 µM) | 8 µg/mL (≈ 4.4 µM) | 8 µg/mL (≈ 4.4 µM) | 16 µg/mL (≈ 8.81 µM) | 2 µg/mL (≈ 1.1 µM) | ≤ 0.06 µg/mL | 8 µg/mL (≈ 4.4 µM) | 1 µg/mL (≈ 0.55 µM) | 0.5 µg/mL (≈ 0.275 µM) | 1 µg/mL (≈ 0.55 µM) | 2 µg/mL (≈ 1.1 µM) | 1 µg/mL (≈ 0.55 µM) | 0.38 µg/mL | MIC [3]: 1 µg/mL (≈ 0.55 µM); MIC [18]: ≤ 0.06 µg/mL; MIC [22]: ≤ 0.06 µg/mL
CNC(CC(C)C)C(=O)NC1C(=O)NC(CC(N)=O)C(=O)NC2C(=O)NC3C(=O)NC(C(=O)NC(C(=O)O)c4cc(O)cc(O)c4-c4cc3ccc4O)C(OC3CC(C)(N)C(O)C(C)O3)c3ccc(c(Cl)c3)Oc3cc2cc(c3OC2OC(CO)C(O)C(O)C2OC2CC(C)(NCc3ccc4ccccc4n3)C(O)C(C)O2)Oc2ccc(cc2Cl)C1O (centres unmarked) [Compound 30] | 4.7 µg/mL | 0.125 µg/mL (≈ 0.0721 µM) | – | ≤ 0.06 µg/mL | ≤ 0.06 µg/mL | 2 µg/mL (≈ 1.15 µM) | > 64 µg/mL | 4 µg/mL (≈ 2.31 µM) | – | 2 µg/mL (≈ 1.15 µM) | > 64 µg/mL | 0.5 µg/mL (≈ 0.288 µM) | ≤ 0.06 µg/mL | 2 µg/mL (≈ 1.15 µM) | ≤ 0.06 µg/mL | ≤ 0.06 µg/mL | 0.25 µg/mL (≈ 0.144 µM) | 1 µg/mL (≈ 0.577 µM) | 0.125 µg/mL (≈ 0.0721 µM) | 0.071 µg/mL | MIC [3]: 0.125 µg/mL (≈ 0.0721 µM); MIC [24]: 0.5 µg/mL (≈ 0.288 µM)
CNC(CC(C)C)C(=O)NC1C(=O)NC(CC(N)=O)C(=O)NC2C(=O)NC3C(=O)NC(C(=O)NC(C(=O)O)c4cc(O)cc(O)c4-c4cc3ccc4O)C(OC3CC(C)(N)C(O)C(C)O3)c3ccc(c(Cl)c3)Oc3cc2cc(c3OC2OC(CO)C(O)C(O)C2OC2CC(C)(NCc3ccccn3)C(O)C(C)O2)Oc2ccc(cc2Cl)C1O (centres unmarked) [Compound 31] | 9.5 µg/mL | – | – | – | – | 4 µg/mL (≈ 2.38 µM) | > 64 µg/mL | 4 µg/mL (≈ 2.38 µM) | – | 1 µg/mL (≈ 0.594 µM) | > 64 µg/mL | 0.5 µg/mL (≈ 0.297 µM) | ≤ 0.06 µg/mL | 0.5 µg/mL (≈ 0.297 µM) | – | – | – | 0.5 µg/mL (≈ 0.297 µM) | ≤ 0.06 µg/mL | 1.2 µg/mL | –
CNC(CC(C)C)C(=O)NC1C(=O)NC(CC(N)=O)C(=O)NC2C(=O)NC3C(=O)NC(C(=O)NC(C(=O)O)c4cc(O)cc(O)c4-c4cc3ccc4O)C(OC3CC(C)(N)C(O)C(C)O3)c3ccc(c(Cl)c3)Oc3cc2cc(c3OC2OC(CO)C(O)C(O)C2OC2CC(C)(NCc3ccc([N+](=O)[O-])cc3)C(O)C(C)O2)Oc2ccc(cc2Cl)C1O (centres unmarked) [Compound 78] | 16 µg/mL | ≤ 0.06 µg/mL | ≤ 0.06 µg/mL | ≤ 0.06 µg/mL | 0.125 µg/mL (≈ 0.0724 µM) | 1 µg/mL (≈ 0.579 µM) | > 64 µg/mL | 2 µg/mL (≈ 1.16 µM) | 16 µg/mL (≈ 9.26 µM) | 0.5 µg/mL (≈ 0.289 µM) | – | 0.25 µg/mL (≈ 0.145 µM) | ≤ 0.06 µg/mL | ≤ 0.06 µg/mL | ≤ 0.06 µg/mL | ≤ 0.06 µg/mL | 0.125 µg/mL (≈ 0.0724 µM) | 2 µg/mL (≈ 1.16 µM) | ≤ 0.06 µg/mL | 0.76 µg/mL | MIC [24]: 0.125 µg/mL (≈ 0.0724 µM); MIC [18]: ≤ 0.06 µg/mL; MIC [22]: ≤ 0.06 µg/mL
CNC(CC(C)C)C(=O)NC1C(=O)NC(CC(N)=O)C(=O)NC2C(=O)NC3C(=O)NC(C(=O)NC(C(=O)O)c4cc(O)cc(O)c4-c4cc3ccc4O)C(OC3CC(C)(N)C(O)C(C)O3)c3ccc(c(Cl)c3)Oc3cc2cc(c3OC2OC(CO)C(O)C(O)C2OC2CC(C)(NCC3CCCCC3)C(O)C(C)O2)Oc2ccc(cc2Cl)C1O (centres unmarked) [Compound 161] | 23 µg/mL | 0.25 µg/mL (≈ 0.148 µM) | ≤ 0.06 µg/mL | ≤ 0.06 µg/mL | 8 µg/mL (≈ 4.74 µM) | 2 µg/mL (≈ 1.18 µM) | > 64 µg/mL | 4 µg/mL (≈ 2.37 µM) | 8 µg/mL (≈ 4.74 µM) | 1 µg/mL (≈ 0.592 µM) | – | 0.5 µg/mL (≈ 0.296 µM) | ≤ 0.06 µg/mL | 1 µg/mL (≈ 0.592 µM) | 0.5 µg/mL (≈ 0.296 µM) | 0.5 µg/mL (≈ 0.296 µM) | 0.125 µg/mL (≈ 0.074 µM) | 0.5 µg/mL (≈ 0.296 µM) | ≤ 0.06 µg/mL | 0.44 µg/mL | MIC [3]: 0.125 µg/mL (≈ 0.074 µM); MIC [24]: 0.25 µg/mL (≈ 0.148 µM); MIC [18]: ≤ 0.06 µg/mL; MIC [22]: ≤ 0.06 µg/mL
CNC(CC(C)C)C(=O)NC1C(=O)NC(CC(N)=O)C(=O)NC2C(=O)NC3C(=O)NC(C(=O)NC(C(=O)O)c4cc(O)cc(O)c4-c4cc3ccc4O)C(OC3CC(C)(NCc4ccc([N+](=O)[O-])cc4)C(O)C(C)O3)c3ccc(c(Cl)c3)Oc3cc2cc(c3OC2OC(CO)C(O)C(O)C2OC2CC(C)(NCc3ccc([N+](=O)[O-])cc3)C(O)C(C)O2)Oc2ccc(cc2Cl)C1O (centres unmarked) [Compound 245] | 13 µg/mL | ≤ 0.06 µg/mL | 1 µg/mL (≈ 0.537 µM) | ≤ 0.06 µg/mL | ≤ 0.06 µg/mL | 2 µg/mL (≈ 1.07 µM) | 0.5 µg/mL (≈ 0.268 µM) | 1 µg/mL (≈ 0.537 µM) | 8 µg/mL (≈ 4.29 µM) | 0.5 µg/mL (≈ 0.268 µM) | > 64 µg/mL | 0.5 µg/mL (≈ 0.268 µM) | ≤ 0.06 µg/mL | ≤ 0.06 µg/mL | ≤ 0.06 µg/mL | ≤ 0.06 µg/mL | ≤ 0.06 µg/mL | ≤ 0.06 µg/mL | ≤ 0.06 µg/mL | 0.38 µg/mL | MIC [24]: 0.25 µg/mL (≈ 0.134 µM); MIC [18]: 2 µg/mL (≈ 1.07 µM); MIC [22]: ≤ 0.06 µg/mL
CNC(CC(C)C)C(=O)NC1C(=O)NC(CC(N)=O)C(=O)NC2C(=O)NC3C(=O)NC(C(=O)NC(C(=O)O)c4cc(O)cc(O)c4-c4cc3ccc4O)C(OC3CC(C)(NCc4ccc5c(c4)Cc4ccccc4-5)C(O)C(C)O3)c3ccc(c(Cl)c3)Oc3cc2cc(c3OC2OC(CO)C(O)C(O)C2OC2CC(C)(NCc3ccc4c(c3)Cc3ccccc3-4)C(O)C(C)O2)Oc2ccc(cc2Cl)C1O (centres unmarked) [Compound 279] | 2.4 µg/mL | ≤ 0.06 µg/mL | ≤ 0.06 µg/mL | ≤ 0.06 µg/mL | 2 µg/mL (≈ 1.03 µM) | ≤ 0.06 µg/mL | > 64 µg/mL | 4 µg/mL (≈ 2.05 µM) | 2 µg/mL (≈ 1.03 µM) | 1 µg/mL (≈ 0.513 µM) | > 64 µg/mL | 0.25 µg/mL (≈ 0.128 µM) | ≤ 0.06 µg/mL | 1 µg/mL (≈ 0.513 µM) | 0.25 µg/mL (≈ 0.128 µM) | 0.25 µg/mL (≈ 0.128 µM) | 0.125 µg/mL (≈ 0.0641 µM) | 0.5 µg/mL (≈ 0.257 µM) | – | 0.11 µg/mL | MIC [3]: 0.25 µg/mL (≈ 0.128 µM); MIC [24]: 0.5 µg/mL (≈ 0.257 µM); MIC [18]: ≤ 0.06 µg/mL; MIC [22]: ≤ 0.06 µg/mL
